Common to all, as to format: cell-based, human
The test system of assay [1] is U-937 hystiocytic lymphoma cell line. In words: CD38 expression by flow cytometry on U-937 cells. An excerpt:
(§1) HL-60 acute promyelocytic leukemia cell line was purchased from ECACC (cat. 98070106), U-937 hystiocytic lymphoma cell line and MM.1S multiple myeloma cell line were purchased from ATCC (cat. CRL-2974 and cat CRL-1593,2, respectively), L-363 multiple myeloma cell line, L-428 classical Hodgkin lymphoma cell line and RS4,11 B-acute lymphoblastic leukemia cell lines were purchased from DSMZ (plasma cell leukemia, cat. ACC 49, cat. ACC 197 and cat. ACC 508, respectively). All cells were maintained in RPMI Medium 1640—GlutaMAX™ (Gibco 61870) except the RS4,11 cells in alpha-MEM Medium (Gibco 12571-063), supplemented with 10% heat inactivated charcoal stripped fetal bovine serum. All culture media were supplemented with 100 units/ml penicillin and 0.1 mg/ml streptomycin, and cell lines were cultured at 37° C. in a humidified atmosphere containing 5% CO2.
(§2) Cells were treated for 72 h with various concentrations of inecalcitol (Hybrigenics, Paris, France) before labelling with fluorescent anti-human CD38 FITC (eBioscience, Vienna, Austria, cat. 11-0389-41) or the matched isotype control: mouse IgG1 K FITC (eBioscience, Vienna Austria, cat. 11-4714-41) for 1 h at 4° C. in native buffer (PBS, 2% BSA, 0.1% sodium azide). After cell wash, fluorescence was measured on an ACEA NovoCyte Flow Cytometer.

Assay [2] concerns RS4,11 B-acute lymphoblastic leukemia cell line. In words: CD38 expression by flow cytometry on RS4,11 cells.
Text: as §1, §2
(Flow cytometry measures light scatter and fluorescence of single cells or particles in a stream.)

The test system of assay [3] is L-428 classical Hodgkin lymphoma cell line. In words: CD38 expression by flow cytometry on L-428 cells.
Text: as §1, §2

The test system of assay [4] is MM.1S multiple myeloma cell line. In words: CD38 expression by flow cytometry on MM.1S cells.
Text: as §1, §2

For assay [5], the system named is L-363 multiple myeloma cell line. Put plainly: CD38 expression by flow cytometry on L-363 cells.
Text: as §1, §2

The subject of assay [6] is HL-60 acute promyelocytic leukemia cell line. In words: CD38 expression by flow cytometry on HL-60 cells.
Text: as §1, §2

Here are results for one compound from US10478497B2, “Combinations of inecalcitol with an anti-CD38 agent and their uses for treating cancer” (HYBRIGENICS SA., priority 2016, dated 2019).

SMILES strings stand for the structures.

With `C[C@H](CC#CC(C)(C)O)[C@H]1CC[C@@H]2/C(=C/C=C3C[C@@H](O)C[C@H](O)C3)CCC[C@@]21C` [inecalcitol, 14epi-, 19nor-, 23yne-, 1,25dihydroxy-cholecalciferol], the “effect on CD38 expression (fold increase of CD38 mean fluorescent signal), in words” value in assay [1] (FIG. 3, U-937 cell line, dose dependent) is recorded as “enhances CD38 expression”; in assay [2] (FIG. 6, RS4.11 cell line, dose dependent), “enhances CD38 expression”; in assay [3] (FIG. 5, classical Hodgkin lymphoma cell line, dose dependent) it was “enhances CD38 expression”; in assay [4] (FIG. 1, MM.1S cell line, dose dependent), “enhances CD38 expression”; in assay [5] (FIG. 2, L-363 cell line, dose dependent), “enhances CD38 expression”; in assay [6] (FIG. 4, HL-60 cell line, dose dependent), “enhances CD38 expression”. Besides, the “maximal increase in fluorescent labelling (CD38)” value amounted to 5 fold in assay [1] (U-937 cells, 72 h treatment); 5 fold in assay [4] (MM.1s cells, 72 h treatment); 5 fold in assay [5] (L-363 cells, 72 h treatment). Moreover, the EC50 in assay [1] (U-937 cells, 72 h treatment, anti-human CD38 FITC flow cytometry, read-out: concentration which triggered 50% of the maximum CD38 induction (EC50)) is 0.57 nM; in assay [2] (RS4,11 cells, 72 h treatment, anti-human CD38 FITC flow cytometry, read-out: concentration which triggered 50% of the maximum CD38 induction (EC50)), 0.55 nM; in assay [3] (L-428 cells, 72 h treatment, anti-human CD38 FITC flow cytometry, read-out: concentration which triggered 50% of the maximum CD38 induction (EC50)) it was 0.23 nM; in assay [4] (MM1.S, MM.1s cells, 72 h treatment, anti-human CD38 FITC flow cytometry, read-out: concentration which triggered 50% of the maximum CD38 induction (EC50)) it was 0.49 nM; in assay [5] (L-363 cells, 72 h treatment, anti-human CD38 FITC flow cytometry, read-out: concentration which triggered 50% of the maximum CD38 induction (EC50)), 4 nM; in assay [6] (HL-60 cells, 72 h treatment, anti-human CD38 FITC flow cytometry, read-out: concentration which triggered 50% of the maximum CD38 induction (EC50)) it was 0.43 nM. Also, the “increase in fluorescent labelling (CD38)” value in assay [2] (RS4,11 cells, 72 h treatment) is given as 2.5 fold; in assay [3] (L-428 cells, 72 h treatment) it was 2 fold.
